The values that follow are results of earlier work, collected in patent US7776366B2, “Method and nutraceutical composition for mammals” (MD's Choice, Inc., priority 2002, dated 2010).

Molecules are shown by their SMILES.

The conditions of this data set: within 30 minutes, in at least 3 species, via glucose transporter.

Regarding `N[C@H]1C(O)O[C@H](CO)[C@@H](O)[C@@H]1O.O=S(=O)(O)O` (stereo partly shown) [Glucosamine sulphate], the “efficiency of active absorption from the digestive tract” value was “over 90%”.
